Target: T1, Cucumis sativus (cucumber) lipid body lipoxygenase (cslbLOX, 13-LOX), wild type, X92890, FIG. 5 (Cucumis sativus, UniProt Q42710)
T1 sequence (Q42710 1-878): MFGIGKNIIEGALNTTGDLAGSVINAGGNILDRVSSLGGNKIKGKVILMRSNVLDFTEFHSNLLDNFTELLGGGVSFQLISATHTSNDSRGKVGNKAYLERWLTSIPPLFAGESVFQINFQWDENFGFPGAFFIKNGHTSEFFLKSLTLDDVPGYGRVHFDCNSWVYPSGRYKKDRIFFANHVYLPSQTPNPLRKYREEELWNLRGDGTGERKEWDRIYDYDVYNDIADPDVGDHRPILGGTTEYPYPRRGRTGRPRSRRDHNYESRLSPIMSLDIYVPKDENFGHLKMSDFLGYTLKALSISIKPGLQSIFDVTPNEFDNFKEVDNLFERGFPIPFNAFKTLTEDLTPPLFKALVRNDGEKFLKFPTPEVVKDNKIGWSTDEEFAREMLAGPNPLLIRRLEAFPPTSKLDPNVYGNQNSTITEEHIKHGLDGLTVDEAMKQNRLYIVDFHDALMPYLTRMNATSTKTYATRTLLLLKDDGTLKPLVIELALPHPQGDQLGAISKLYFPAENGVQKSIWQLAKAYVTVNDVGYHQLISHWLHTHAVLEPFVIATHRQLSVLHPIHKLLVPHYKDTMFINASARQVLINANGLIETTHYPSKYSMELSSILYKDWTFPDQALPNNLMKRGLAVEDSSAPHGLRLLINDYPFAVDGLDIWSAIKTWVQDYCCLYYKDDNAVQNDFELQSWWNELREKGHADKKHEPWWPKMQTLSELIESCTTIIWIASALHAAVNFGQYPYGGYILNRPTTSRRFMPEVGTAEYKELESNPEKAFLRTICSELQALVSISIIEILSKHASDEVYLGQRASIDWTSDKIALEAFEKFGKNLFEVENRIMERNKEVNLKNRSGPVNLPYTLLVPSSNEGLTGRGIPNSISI
Assay: Kinetic characterization of wild-type LOX (13-LOX) with LA
Format: biochemical
Conditions: 23 points measured between 100 μM and 250 μM LA
Description: For the bacterial expression of wild-type LOX and for directed mutagenesis the plasmid pQE-30 (Qiagen, Hilden, Germany), which contained the cDNA of the LOX from lipid bodies of cucumber cotyledons as an insert (LOXpQE 30: cf. Feussner, I., Bachmann, A., Höhne, M. & Kindl, H. (1998) FEBS Lett. 431, 433-436) was used. The mutagenesis was carried out with the aid of the QuikChange Mutagenesis Kit from Stratagene (Heidelberg, Germany). Oligonucleotides with the appropriate base exchanges were obtained from MWG-Biotech (Ebersberg, Germany). For the analysis of the mutations further conservative base exchange was initiated in order to create new restriction division sites or to delete existing ones. In addition all the mutations were sequenced and at least three different bacterial clones expressed and used for the investigation of enzymatic properties. The expression of LOXpQE-30 and all the mutations was carried out according to Feussner, I., Bachmann, A., Höhne, M. & Kindl, H. (1998) FEBS Left. 431, 433-436. Cells from 1-liter cultures were resuspended in 5 to 7 ml lysis buffer and with the aid of an ultrasound needle broken up with pulses each of 30 seconds, and the cell debris made into pellets. The affinity purification of the polyHis-extended LOX was carried out as previously described (cf. Feussner, I., Bachmann, A., Höhne, M. & Kindl, H. (1998) FEBS Lett. 431, 433436).

Km: 115 µM
LA turnover at Vmax condition (substrate saturation): 12 s⁻¹
Structure (SMILES): CCCCC/C=C\C/C=C\CCCCCCCC(=O)O [LA, linoleic acid]

Reference: patent US6875847B1, “Linoleate and linolenate-lipoxygenase mutants” (Institut fur Pflanzenbiochemie IPE, priority 1999, dated 2005)
